Measured values: patent US12576155B2, “Senolytic and antiinflammatory prodrugs and methods of use thereof” (priority 2019, dated 2026)

Test system: naturally occurring senescent cells of aged mice
Assay: SSK1 treatment of naturally aged mice (senescent cells, SASP, physical function, RNA-seq)
Assay type: in vivo, C57BL/6 mice
Procedure: All drugs were mixed in 90% PBS, 5% Tween-80 (P1754, Sigma), and 5% polyethylene glycol (PEG) (81172, Sigma) and administered to mice by intraperitoneal (i.p.) injection. For treating bleomycin-injured young mice, SSK1 (0.5 mg/kg) or vehicle were given consecutive two days every week for five weeks. For old mice (20-month-old), SSK1 (0.5 mg/kg), gemcitabine (0.5 mg/kg) or vehicle were administrated for continued 3 days every two weeks. Gemcitabine was purchased from MCE.
Cultured cells were washed once with PBS and fixed in β-galactosidase staining fix solution for 15 min at room temperature. Cells were then washed three times with PBS and incubated with β-galactosidase staining solution (Beyotime Biotechnology) for 16-20 hours at 37° C. For 12-well plates, 1 ml of β-galactosidase staining solution was added to each well. The plate was sealed with Parafilm to prevent evaporation of the staining medium. After the overnight incubation, cells were washed with PBS and observed under a bright field microscope. For β-galactosidase staining of frozen sections, the frozen sections were dried at 37° C. for 20-30 min and then fixed in β-galactosidase staining fix solution for 15 min at room temperature. The frozen sections were washed three times with PBS and incubated with β-galactosidase staining solution overnight at 37° C. After completion of β-galactosidase staining, the sections were stained with eosin for 1-2 min, rinsed under running water for 1 min, differentiated in 1% acid alcohol for 10-20 sec, and washed again under running water for 1 min. Sections were dehydrated in increasing concentrations of alcohols and cleared in xylene. Excess xylene was drained and a coverslip was placed over the section. After drying, the sample was observed under a microscope.
Lung, liver, and kidney frozen sections stained with SA-β-Gal were quantified by ImageJ software (NIH) to measure the SA-β-Gal positive area. The total area was quantified by eosin positive area with ImageJ software (NIH). The relative positive SA-β-Gal positive cells were calculated with the SA-β-Gal positive area divided by the total area. Each mouse was measured with 3-5 regions.
Mouse liver tissues were fixed in 4% paraformaldehyde (DingGuo, AR-0211) for 24 h at room temperature and dehydrated with graded sucrose solution (20% and 30% respectively 24 h) before embedded in OCT compound (Sakura) for cryosection. The embedded tissues were cut and affixed on slides. Before immunohistochemical staining, the sections were fixed in 4% paraformaldehyde (DingGuo, AR-0211) at room temperature for 15 min and blocked with PBS containing 0.25% Triton X-100 (Sigma-Aldrich, T8787) and 2% normal donkey serum (Jackson ImmunoResearch Laboratories, 017-000-121) at room temperature for 1 h. Samples for immunofluorescence staining were incubated with primary antibody: anti-F4/80 antibody (Abcam, ab6640) at 4° C. overnight, washed three times with PBS and then incubated with appropriate secondary antibodies: Alexa Fluor® 488 AffiniPure Donkey Anti-Rat IgG (H+L) (Jackson ImmunoResearch Laboratories, 712-545-150) for 1.5 h at 37° C. Nuclei were stained with Hoechst 33342 (Sigma-Aldrich, B2261).
For quantification of F4/80 positive cells, images were randomly taken at 20× magnification at the same exposure using confocal laser endomicroscopy (LSM 710 NLO &DuoScan System) and then analyzed by ImageJ. Each mouse was measured with at least 6-10 regions.
Total RNA was isolated using the Direct-zol RNA MiniPrep Kit (Zymo Research, R2072). RNA was treated with DNase and converted to cDNA using TransScript First-Strand cDNA Synthesis SuperMix (TransGen Biotech, AT311-03). qPCR was performed using Kapa SYBR® FAST qPCR Kit Master Mix (Kapa Biosystems, KM4101) on a CFX Connect™ Real-Time System or CFX96™ Real-Time System (Bio-Rad). Data were analyzed using the 2^(−ΔΔCt) method. Gapdh was used as a control to normalize the expression of target genes. […]

[1] = 20-month-old mice, SSK1 0.5 mg/kg i.p. intermittently for 8 weeks
[2] = aged mice, SSK1 0.5 mg/kg vs vehicle
[3] = old female mice, 8 weeks, vs vehicle

CC(=O)OCC1O[C@@H](Oc2ccc(COC(=O)Nc3ccn([C@@H]4O[C@H](CO)C(O)C4(F)F)c(=O)n3)cc2[N+](=O)[O-])C(OC(C)=O)C(OC(C)=O)[C@H]1OC(C)=O (stereo partly drawn) [SSK1]
Elimination of β-gal-positive senescent cells vs vehicle, kidney [1]: 3.5 fold
Elimination of β-gal-positive senescent cells vs vehicle, liver [1]: 5.9 fold
Elimination of β-gal-positive senescent cells vs vehicle, lung [1]: 2 fold
GO pathways related to liver function (oxidation-reduction process, metabolic process, fatty acid beta-oxidation, mitochondrion) (aged livers vs vehicle): up-regulated
Genes associated with inflammatory response, TNFα signaling via NF-κB, IL6 JAK Stat3 signaling and complement (GSEA) (aged mice livers and kidneys vs vehicle): down regulated
Age-associated signature (GSEA) in aged livers and kidneys (aged mice vs vehicle): decreased
Expression of senescent markers p16 (in liver) and p21 (in liver and kidney), RT-qPCR (aged mice vs vehicle): decreased expression
Inflammatory factors IL1α and IL1β in aged liver and IL6 in aged kidneys, RT-qPCR (aged mice vs vehicle): decreased
F4/80 positive macrophages infiltration in livers (immunofluorescence) (aged mice, SSK1 0.5 mg/kg): could delete macrophages infiltration
Gene signature associated with senescence (GSEA), livers and kidneys [2]: downregulate
Secretion of SASP factors IL1α, IL6, CXCL1 and TNFα in serum (ELISA) [2]: decreased secretion
Rotarod, treadmill, and grip strength functions vs other senolytic drugs (fisetin, 17-DMAG, ABT263, dasatinib and quercetin) (aged mice, FIG. 4J): improved the rotarod, treadmill, and grip strength functions when compared to the other senolytic compounds
Body weight (old female mice, 8 weeks): without significant effect on body weight
Balance beam crossing time [3]: decreased
Grip strength [3]: significantly increased
Maximal rotarod time [3]: significantly increased
Rearing exploration times [3]: significantly increased
Treadmill distance [3]: significantly increased
Rotarod, treadmill, and grip strength performance (old male mice, SSK1 0.5 mg/kg vs vehicle): same results were also observed
Liver fibrosis (Masson fibrosis staining) (old mice vs vehicle): attenuate liver fibrosis
Rotarod and treadmill performance after vs before treatment (old mice, SSK1 0.5 mg/kg): improved over the initial state before treatment
